Assay results: patent US9994522B2, “Amorphous form of apremilast” (MAPI PHARMA LTD., priority 2014, dated 2018)

Key:
Type in all cases: physicochemical
[1] = Physical stability on storage, XRPD pattern; settings: for physical stability: 25° C. closed, 25° C./60% RH and 40° C. closed, three months (not 40° C./75% RH)
Protocol: 3.1 XRPD Method • Details of XRPD method used in the tests are mentioned below: • X-ray Generator: Cu, Kα (λ=1.54179 Å). • Tube Voltage: 40 kV; Current: 40 mA. • Scanning Scope: 4 to 40 deg; • Sample rotation speed: 15 rpm. • Scanning rate: 10 deg/min
(§1) About 40 mg of scaled up amorphous sample prepared by solvent-anti-solvent precipitation (addition of water to acetone) as described in Example 6 was weighed into glass vials. The vials were stored under different testing conditions (25° C. closed vial, 25° C./60% RH, 40° C. closed vial and 40° C./75% RH) 1 week, 2 weeks, 4 weeks, and 3 months. The original scaled up amorphous form was used as a control. XRPD and mDSC were checked at the end of each time point.

[2] = Physical stability on storage, mDSC
Protocol: Details of mDSC methods used in the tests are mentioned below: • Method I: Amorphous samples (about 1 mg) were run a modulated DSC using Tzero aluminum pans heated from 0° C. to 200° C. at speed of 2° C./min, with modulation temperature amplitude 1.0° C. and modulation 60 s. • Method II: The two-cycle heating mDSC was run using Tzero aluminum hermetic pans with pinhole with first cycle heated from 0° C. to 160° C. at speed of 2° C./min and the second cycle from 0° C. to 260° C. at speed of 2° C./min.
as §1

[3] = Physical stability on storage, appearance
Protocol: as §1

[4] = Dynamic Vapor Sorption (DVS) / hygroscopicity; settings: for Change In Mass (%) - ref, Desorption / Change In Mass (%) - ref, Sorption / Change In Mass (%) - ref, Hysteresis: 25° C.
Protocol: Details of DVS method used in the tests are mentioned below: • Samples (about 10 mg) were transferred into a DVS pan, the weight changes were recorded with respect to the atmospheric humidity at 25° C.
The following parameters were used: • Equilibrium: dm/dt: 0.01%/min. (for min: 10 min and max: 180 min). • Drying: 0% RH for 120 min. • RH (%) measurement step: 5%, • RH (%) measurement step scope: 0˜95˜0%.

[5] = stored 25° C. Closed, 3rd month
[6] = stored 25° C./60% RH, 3rd month
[7] = stored 40° C. Closed, 3rd month
[8] = stored 40° C./75% RH, 3rd month
[9] = DVS Cycle 1, target 10.0 % P/Po
[10] = DVS Cycle 1, target 15.0 % P/Po
[11] = DVS Cycle 1, target 20.0 % P/Po
[12] = DVS Cycle 1, target 25.0 % P/Po
[13] = DVS Cycle 1, target 30.0 % P/Po
[14] = DVS Cycle 1, target 35.0 % P/Po
[15] = DVS Cycle 1, target 40.0 % P/Po
[16] = DVS Cycle 1, target 45.0 % P/Po
[17] = DVS Cycle 1, target 50.0 % P/Po
[18] = DVS Cycle 1, target 55.0 % P/Po
[19] = DVS Cycle 1, target 60.0 % P/Po
[20] = DVS Cycle 1, target 65.0 % P/Po
[21] = DVS Cycle 1, target 70.0 % P/Po
[22] = DVS Cycle 1, target 75.0 % P/Po
[23] = DVS Cycle 1, target 80.0 % P/Po
[24] = DVS Cycle 1, target 85.0 % P/Po
[25] = DVS Cycle 1, target 90.0 % P/Po
[26] = DVS Cycle 1, target 95.0 % P/Po

Structure (SMILES): CCOc1cc([C@@H](CS(C)(=O)=O)N2C(=O)c3cccc(NC(C)=O)c3C2=O)ccc1OC [amorphous apremilast, N-[2-[(1S)-1-(3-ethoxy-4-methoxyphenyl)-2-(methylsulfonyl)ethyl]-2,3-dihydro-1,3-dioxo-1H-isoindol-4-yl]acetamide]
- physical stability [1]: good physical stability
- physical stability ([1]; listed as Apremilast): stable for three months
- XRPD Pattern ([1]; Initial): Amorphous
- XRPD Pattern ([1]; stored 25° C. Closed, 1st week): Amorphous
- XRPD Pattern ([1]; stored 25° C. Closed, 2nd week): Amorphous
- XRPD Pattern [1, 5]: Amorphous
- XRPD Pattern ([1]; stored 25° C. Closed, 4th week): Amorphous
- XRPD Pattern ([1]; stored 25° C./60% RH, 1st week): Amorphous
- XRPD Pattern ([1]; stored 25° C./60% RH, 2nd week): Amorphous
- XRPD Pattern [1, 6]: Amorphous
- XRPD Pattern ([1]; stored 25° C./60% RH, 4th week): Amorphous
- XRPD Pattern ([1]; stored 40° C. Closed, 1st week): Amorphous
- XRPD Pattern ([1]; stored 40° C. Closed, 2nd week): Amorphous
- XRPD Pattern [1, 7]: Amorphous
- XRPD Pattern ([1]; stored 40° C. Closed, 4th week): Amorphous
- XRPD Pattern ([1]; stored 40° C./75% RH, 1st week): Amorphous
- XRPD Pattern ([1]; stored 40° C./75% RH, 2nd week): Amorphous
- XRPD Pattern [1, 8]: Amorphous
- XRPD Pattern ([1]; stored 40° C./75% RH, 4th week): Amorphous
- small spike in the XRPD ([1]; stored 40° C./75% RH, after three months): 13.5 degrees two theta [2θ°]
- Tg of mDSC (first glass transition temperature) ([2]; Initial): 77.7 °C
- Tg of mDSC (second glass transition temperature) ([2]; Initial): 133.5 °C
- change of first glass transition temperature (77.7° C.) on storage ([2]; all testing conditions, up to end of the third month): did not change significantly
- change of second glass transition temperature (133.6° C.) on storage ([2]; different testing conditions, first week and second week): changed irregularly and even disappeared
- heat of fusion peak related to crystalline conversion ([2]; stored 25° C. (closed), 40° C. (closed) and 25° C./60% RH for three months): No heat of fusion peak related to crystalline conversion
- Tg of mDSC (first glass transition temperature) ([2]; stored 25° C. Closed, 1st week): 77.7 °C
- Tg of mDSC (first glass transition temperature) ([2]; stored 25° C. Closed, 2nd week): 78.5 °C
- Tg of mDSC (second glass transition temperature) ([2]; stored 25° C. Closed, 2nd week): 181.3 °C
- Tg of mDSC (first glass transition temperature) [2, 5]: 79.0 °C
- Tg of mDSC (first glass transition temperature) ([2]; stored 25° C. Closed, 4th week): 78.2 °C
- Tg of mDSC (first glass transition temperature) ([2]; stored 25° C./60% RH, 1st week): 78.4 °C
- Tg of mDSC (second glass transition temperature) ([2]; stored 25° C./60% RH, 1st week): 171.4 °C
- Tg of mDSC (first glass transition temperature) ([2]; stored 25° C./60% RH, 2nd week): 78.8 °C
- Tg of mDSC (first glass transition temperature) [2, 6]: 79.9 °C
- Tg of mDSC (first glass transition temperature) ([2]; stored 25° C./60% RH, 4th week): 78.9 °C
- Tg of mDSC (first glass transition temperature) ([2]; stored 40° C. Closed, 1st week): 79.1 °C
- Tg of mDSC (first glass transition temperature) ([2]; stored 40° C. Closed, 2nd week): 79.7 °C
- Tg of mDSC (second glass transition temperature) ([2]; stored 40° C. Closed, 2nd week): 170.4 °C
- Tg of mDSC (first glass transition temperature) [2, 7]: 83.9 °C
- Tg of mDSC (first glass transition temperature) ([2]; stored 40° C. Closed, 4th week): 81.1 °C
- Tg of mDSC (first glass transition temperature) ([2]; stored 40° C./75% RH, 1st week): 77.5 °C
- Tg of mDSC (second glass transition temperature) ([2]; stored 40° C./75% RH, 1st week): 105.9 °C
- Tg of mDSC (first glass transition temperature) ([2]; stored 40° C./75% RH, 2nd week): 77.8 °C
- Tg of mDSC (second glass transition temperature) ([2]; stored 40° C./75% RH, 2nd week): 174.5 °C
- Tg of mDSC (first glass transition temperature) [2, 8]: 77.7 °C
- Tg of mDSC (first glass transition temperature) ([2]; stored 40° C./75% RH, 4th week): 78.0 °C
- sharp endothermic peak on mDSC (related to melting point of the crystalline form) ([2]; stored 40° C./75% RH, third month): 153.4 °C
- Appearance ([3]; Initial): Light Yellow
- Appearance ([3]; stored 25° C. Closed, 1st week): Light
- Appearance ([3]; stored 25° C. Closed, 2nd week): Light
- Appearance [3, 5]: Light
- Appearance ([3]; stored 25° C. Closed, 4th week): Light
- Appearance ([3]; stored 25° C./60% RH, 1st week): Light
- Appearance ([3]; stored 25° C./60% RH, 2nd week): Light
- Appearance [3, 6]: Light
- Appearance ([3]; stored 25° C./60% RH, 4th week): Light
- Appearance ([3]; stored 40° C. Closed, 1st week): Light
- Appearance ([3]; stored 40° C. Closed, 2nd week): Light
- Appearance [3, 7]: Light
- Appearance ([3]; stored 40° C. Closed, 4th week): Light
- Appearance ([3]; stored 40° C./75% RH, 1st week): Light
- Appearance ([3]; stored 40° C./75% RH, 2nd week): Light
- Appearance ([3]; stored 40° C./75% RH, 3rd month, listed as Amorphous Apremilast): Darken
- Appearance ([3]; stored 40° C./75% RH, 3rd month, listed as apremilast): changed from light yellow to darkened yellow
- Appearance ([3]; stored 40° C./75% RH, 4th week): Light
- Change In Mass (%) - ref, Desorption ([4]; DVS Cycle 1, target 0.0 % P/Po): −0.066%
- Change In Mass (%) - ref, Sorption ([4]; DVS Cycle 1, target 0.0 % P/Po): −0.010%
- Change In Mass (%) - ref, Desorption ([4]; DVS Cycle 1, target 5.0 % P/Po): 0.138%
- Change In Mass (%) - ref, Hysteresis ([4]; DVS Cycle 1, target 5.0 % P/Po): −0.045%
- Change In Mass (%) - ref, Sorption ([4]; DVS Cycle 1, target 5.0 % P/Po): 0.183%
- Change In Mass (%) - ref, Desorption [4, 9]: 0.308%
- Change In Mass (%) - ref, Hysteresis [4, 9]: −0.006%
- Change In Mass (%) - ref, Sorption [4, 9]: 0.314%
- Change In Mass (%) - ref, Desorption [4, 10]: 0.463%
- Change In Mass (%) - ref, Hysteresis [4, 10]: 0.030%
- Change In Mass (%) - ref, Sorption [4, 10]: 0.434%
- Change In Mass (%) - ref, Desorption [4, 11]: 0.606%
- Change In Mass (%) - ref, Hysteresis [4, 11]: 0.066%
- Change In Mass (%) - ref, Sorption [4, 11]: 0.540%
- Change In Mass (%) - ref, Desorption [4, 12]: 0.740%
- Change In Mass (%) - ref, Hysteresis [4, 12]: 0.107%
- Change In Mass (%) - ref, Sorption [4, 12]: 0.633%
- Change In Mass (%) - ref, Desorption [4, 13]: 0.860%
- Change In Mass (%) - ref, Hysteresis [4, 13]: 0.131%
- Change In Mass (%) - ref, Sorption [4, 13]: 0.730%
- Change In Mass (%) - ref, Desorption [4, 14]: 0.976%
- Change In Mass (%) - ref, Hysteresis [4, 14]: 0.155%
- Change In Mass (%) - ref, Sorption [4, 14]: 0.821%
- Change In Mass (%) - ref, Desorption [4, 15]: 1.090%
- Change In Mass (%) - ref, Hysteresis [4, 15]: 0.181%
- Change In Mass (%) - ref, Sorption [4, 15]: 0.909%
- Change In Mass (%) - ref, Desorption [4, 16]: 1.203%
- Change In Mass (%) - ref, Hysteresis [4, 16]: 0.200%
- Change In Mass (%) - ref, Sorption [4, 16]: 1.003%
- Change In Mass (%) - ref, Desorption [4, 17]: 1.311%
- Change In Mass (%) - ref, Hysteresis [4, 17]: 0.224%
- Change In Mass (%) - ref, Sorption [4, 17]: 1.087%
- Change In Mass (%) - ref, Desorption [4, 18]: 1.411%
- Change In Mass (%) - ref, Hysteresis [4, 18]: 0.238%
- Change In Mass (%) - ref, Sorption [4, 18]: 1.173%
- Change In Mass (%) - ref, Desorption [4, 19]: 1.514%
- Change In Mass (%) - ref, Hysteresis [4, 19]: 0.250%
- Change In Mass (%) - ref, Sorption [4, 19]: 1.263%
- Change In Mass (%) - ref, Desorption [4, 20]: 1.619%
- Change In Mass (%) - ref, Hysteresis [4, 20]: 0.258%
- Change In Mass (%) - ref, Sorption [4, 20]: 1.360%
- Change In Mass (%) - ref, Desorption [4, 21]: 1.730%
- Change In Mass (%) - ref, Hysteresis [4, 21]: 0.270%
- Change In Mass (%) - ref, Sorption [4, 21]: 1.460%
- Change In Mass (%) - ref, Desorption [4, 22]: 1.836%
- Change In Mass (%) - ref, Hysteresis [4, 22]: 0.338%
- Change In Mass (%) - ref, Sorption [4, 22]: 1.498%
- Change In Mass (%) - ref, Desorption [4, 23]: 1.940%
- Change In Mass (%) - ref, Hysteresis [4, 23]: 0.306%
- Change In Mass (%) - ref, Sorption [4, 23]: 1.634%
- Change In Mass (%) - ref, Desorption [4, 24]: 1.972%
- Change In Mass (%) - ref, Hysteresis [4, 24]: 0.208%
- Change In Mass (%) - ref, Sorption [4, 24]: 1.763%
- Change In Mass (%) - ref, Desorption [4, 25]: 1.956%
- Change In Mass (%) - ref, Hysteresis [4, 25]: 0.122%
- Change In Mass (%) - ref, Sorption [4, 25]: 1.834%
- Change In Mass (%) - ref, Desorption [4, 26]: 1.883%
- Change In Mass (%) - ref, Sorption [4, 26]: 1.883%
- Hygroscopicity Classification ([4]; based on DVS data, criterion at 25 ± 1° C. and 80 ± 2% RH): slightly hygroscopic
